Source: publication PMC8457121, “From Kinase Inhibitors to Multitarget Ligands as Powerful Drug Leads for Alzheimer's Disease using Protein‐Templated Synthesis” (Angewandte Chemie (International Ed. in English), 2021)
pIC50: −log10 of the molar value.

Columns and labels:
BACE1 [1] = target: T1, BACE1 (Homo sapiens, UniProt P56817); assay: Evaluation of BACE inhibitors kinetics (Lineweaver-Burk); format: biochemical; conditions: different concentrations of substrate and compound
Procedure: enzyme concentration (1 U/mL). Inhibitor screening at 10 μM. The mixture was incubated for 60 min at 25 °C under dark conditions and then stopped with 2.5 M sodium acetate. Fluorescence was measured with a FLUOstar Optima (BMG
Labtechnologies GmbH, Offenburg, Germany) microplate reader at 545 nm excitation and 585 nm emission.
Evaluation of BACE Inhibitors Kinetics. To evaluate the mechanism of BACE1 inhibition of the compounds, substrate-dependent kinetic experiments were performed. BACE activity were measured at five different concentrations substrate (1000 -62,5 µM) in the absence or presence of the select inhibitor at two different concentrations. The results are presented as double reciprocal Lineweaver−Burk plots (1/V vs 1/[S]) Figure S1.
Cell culture and treatments. SK-N-MC cells stably expressing the human isoform APP695 (SK-APP cell line D1; SKAPP-D1) were generated by transfection of SK-N-MC cells with a pCDNA3-APP expression vector, and kindly provided by Dr. MJ Bullido. These cells were cultured in DMEM (Thermo Fisher) medium supplemented with 10% FBS (Thermo Fisher), 1 mM glutamine (Sigma-Aldrich), and 100 unit/ml penicillin (Lonza) and […] streptomycin (Lonza).
Cell cultures were maintained in a 5% CO2, humidified atmosphere at 37 °C. […]

BACE1 [2] = target: T1, BACE1; assay: BACE1 enzymatic assay (FRET); format: biochemical
Procedure: BACE1 enzymatic assay. BACE1 in vitro assays were carried out using FRET.
μM) carrying the Swedish mutation and containing a rhodamine as a fluorescence donor and a quencher acceptor at each end was used. The intact substrate is weakly fluorescent and becomes highly fluorescent upon enzymatic cleavage.
The assays were conducted in 50 mM sodium acetate buffer, pH 4.5, in a final

SK-APP cells = assay: Aβ40 and Aβ42 levels in SK-APP cells (sandwich ELISA); format: cell-based, human; conditions: 10 μM, 48 h treatment
Procedure: page 35: enzyme concentration (1 U/mL). Inhibitor screening at 10 μM. The mixture was incubated for 60 min at 25 °C under dark conditions and then stopped with 2.5 M sodium acetate. Fluorescence was measured with a FLUOstar Optima (BMG Labtechnologies GmbH, Offenburg, Germany) microplate reader at 545 nm excitation and 585 nm emission. Evaluation of BACE Inhibitors Kinetics. To evaluate the mechanism of BACE1 inhibition of the compounds, substrate-dependent kinetic experiments were performed. BACE activity were measured at five different concentrations substrate (1000 -62,5 μM) in the absence or presence of the select inhibitor at two different concentrations. The results are presented as double reciprocal Lineweaver-Burk plots (1/V vs 1/[S]) Figure S1. Cell culture and treatments. SK-N-MC cells stably expressing the human isoform APP695 (SK-APP cell line […]1) were generated by transfection of SK-N-MC cells with a pCDNA3-APP expression vector, and kindly provided by Dr. MJ Bullido. These cells were cultured in DMEM (Thermo Fisher) medium supplemented with 10% FBS (Thermo Fisher), 1 mM glutamine (Sigma- Aldrich), and 100 unit/ml penicillin (Lonza) and […] streptomycin (Lonza). Cell cultures were maintained in a 5% CO2, humidified atmosphere at 37 °C. SH-SY5Y cells were obtained from the American Type Culture Collection and grown in DMEM media (Gibco), supplemented with 10% foetal bovine serum, and 1% penicillin/streptomycin (Invitrogen). The cells were grown at 37 °C in a humidified 5% CO2 atmosphere. For the treatments, all the compounds were dissolved in dimethyl sulfoxide (DMSO, from Sigma) at an initial stock concentration of 10 mM. […] working solutions were obtained from the dilution of the stock solutions in DMEM media (DMSO control solutions were prepared similarly to the compounds). Okadaic acid (OA, Sigma-Aldrich) was dissolved in DMSO at an initial stock concentration of 60 μM and a 250X working solution was obtained from the dilution of the stock solution in DMEM. All the compounds (250x solutions) were added directly into the wells at the indicated final concentrations for 1 hour before the treatment with OA at a final concentration of 30 nM. DMSO was added at the appropriate concentration to the 34 page 36: control-untreated cells. The cells were maintained in the presence of the OA and the different compounds for 24h. Measurement of cell viability. Cell viability assays were carried out using a 3- […] (Sigma-Aldrich) in 96-well cell culture plates. All cells were then incubated with a 0.5 mg/ml MTT solution (Sigma-Aldrich) at 37 °C for 4 h and then with cell lysis […] The absorbance values were determined at 590 nm. Cell viability was expressed as a percent of OD of control cells, the value of which was defined as 100%. Cell viability in SH-SY5Y were carried out following the same procedure but seeding the cells in 24 well multiplates. Absorbance was measured using a Varioskan Flash multiplate reader (Thermo Scientific) at test 550 nm and reference 664 nm wave-lengths. Compound concentration for SK-APP line was 10 μM and for the SH-SY5Y was 1 and 5 μM. Immunoassays. Levels of Aβ40 and Aβ42 were quantified by sandwich ELISAs (Wako, Osaka, Japan) from cellular lysates and conditioned media collected. CNS penetration: in vitro PAMPA-BBB test. Prediction of the brain penetration was evaluated using a parallel artificial membrane permeability assay (PAMPA).1 Nine quality control compounds (mentioned below) of know BBB permeability were included in each experiment to validate the analysis set.2 Commercial drugs […] dissolved in 250 μL of DMSO (Sigma-Aldrich). 25 μL of these compound stock solutions were taken and 225 μL of DMSO and 4750 μL of PBS pH 7.4 buffer were added to reach 5% of DMSO concentration in the experiment and a final […] Compounds to be determined their ability to pass the brain barrier (0.5-1 mg) were dissolved in 250 μL of DMSO and 4750 μL of PBS pH 7.4 was carefully added to afford a final […]

PAMPA-BBB test = format: in vitro ADME; conditions: PBS pH 7.4 with 5% DMSO
Procedure: dissolved in 250 µL of DMSO (Sigma-Aldrich). 25 µL of these compound stock
solutions were taken and 225 µL of DMSO and 4750 µL of PBS pH 7.4 buffer
compound concentration in the range of 0.2 to 1.1 mM. Compounds to be
µL of DMSO and 4750 µL of PBS pH 7.4 was carefully added to afford a final
compound concentration in the range of 0.2 to 1.1 mM. Solutions were filtered
using filter PDVF membrane units (diameter 30 mm, pore size 0.45 μm, Symta).
10 µL of each solution were taken and diluted 10-fold with PBS/DMSO (95/5) for
HPLC-MS analysis. The acceptor 96-well plate (Multiscreen®, catalog no.
MAMCS9610, Millipore) was filled with 180 µL of PBS/DMSO (95/5). The donor
96-well plate (Multiscreen® IP Sterile Plate PDVF membrane, pore size is 0.45
M, catalog no. MAIPS4510, Millipore) was coated with 4 µL 20 mg·mL-1 of
for 5 min and then 180 µL of each compound solution was added. Then the donor
plate was put on the acceptor plate and kept for 2.5 h at room temperature. After
incubation, samples were collected from the acceptor plate and diluted 10-fold
with PBS/DMSO (95/5) for HPLC-MS analysis and compared to HPLC-MS of
initial solutions. Absorbance peak of each compound was determined by MS
detection and was used to calculate the concentration of compounds and
Every sample was analysed in two independent
runs. HPLC-MS was performed using a HPLC-MS equipment from Thermo
Fisher coupled to a Finnigan TM LXQ TM detector. Each compound was
analysed using a Sunfire column C18, 3.5 μm (50 mm x 4.6 mm) and acetonitrile
and Milli-Q water (with 0.1% formic acid) as mobile phase. The standard gradient

LRRK2 = target: T2, LRRK2 (Homo sapiens, UniProt Q5S007); assay: LRRK2 inhibition enzymatic assay (Adapta, ThermoFisher); format: biochemical
T2 construct: purchased ThermoFisher (assay run by the company)
T2 sequence (Q5S007 whole entry): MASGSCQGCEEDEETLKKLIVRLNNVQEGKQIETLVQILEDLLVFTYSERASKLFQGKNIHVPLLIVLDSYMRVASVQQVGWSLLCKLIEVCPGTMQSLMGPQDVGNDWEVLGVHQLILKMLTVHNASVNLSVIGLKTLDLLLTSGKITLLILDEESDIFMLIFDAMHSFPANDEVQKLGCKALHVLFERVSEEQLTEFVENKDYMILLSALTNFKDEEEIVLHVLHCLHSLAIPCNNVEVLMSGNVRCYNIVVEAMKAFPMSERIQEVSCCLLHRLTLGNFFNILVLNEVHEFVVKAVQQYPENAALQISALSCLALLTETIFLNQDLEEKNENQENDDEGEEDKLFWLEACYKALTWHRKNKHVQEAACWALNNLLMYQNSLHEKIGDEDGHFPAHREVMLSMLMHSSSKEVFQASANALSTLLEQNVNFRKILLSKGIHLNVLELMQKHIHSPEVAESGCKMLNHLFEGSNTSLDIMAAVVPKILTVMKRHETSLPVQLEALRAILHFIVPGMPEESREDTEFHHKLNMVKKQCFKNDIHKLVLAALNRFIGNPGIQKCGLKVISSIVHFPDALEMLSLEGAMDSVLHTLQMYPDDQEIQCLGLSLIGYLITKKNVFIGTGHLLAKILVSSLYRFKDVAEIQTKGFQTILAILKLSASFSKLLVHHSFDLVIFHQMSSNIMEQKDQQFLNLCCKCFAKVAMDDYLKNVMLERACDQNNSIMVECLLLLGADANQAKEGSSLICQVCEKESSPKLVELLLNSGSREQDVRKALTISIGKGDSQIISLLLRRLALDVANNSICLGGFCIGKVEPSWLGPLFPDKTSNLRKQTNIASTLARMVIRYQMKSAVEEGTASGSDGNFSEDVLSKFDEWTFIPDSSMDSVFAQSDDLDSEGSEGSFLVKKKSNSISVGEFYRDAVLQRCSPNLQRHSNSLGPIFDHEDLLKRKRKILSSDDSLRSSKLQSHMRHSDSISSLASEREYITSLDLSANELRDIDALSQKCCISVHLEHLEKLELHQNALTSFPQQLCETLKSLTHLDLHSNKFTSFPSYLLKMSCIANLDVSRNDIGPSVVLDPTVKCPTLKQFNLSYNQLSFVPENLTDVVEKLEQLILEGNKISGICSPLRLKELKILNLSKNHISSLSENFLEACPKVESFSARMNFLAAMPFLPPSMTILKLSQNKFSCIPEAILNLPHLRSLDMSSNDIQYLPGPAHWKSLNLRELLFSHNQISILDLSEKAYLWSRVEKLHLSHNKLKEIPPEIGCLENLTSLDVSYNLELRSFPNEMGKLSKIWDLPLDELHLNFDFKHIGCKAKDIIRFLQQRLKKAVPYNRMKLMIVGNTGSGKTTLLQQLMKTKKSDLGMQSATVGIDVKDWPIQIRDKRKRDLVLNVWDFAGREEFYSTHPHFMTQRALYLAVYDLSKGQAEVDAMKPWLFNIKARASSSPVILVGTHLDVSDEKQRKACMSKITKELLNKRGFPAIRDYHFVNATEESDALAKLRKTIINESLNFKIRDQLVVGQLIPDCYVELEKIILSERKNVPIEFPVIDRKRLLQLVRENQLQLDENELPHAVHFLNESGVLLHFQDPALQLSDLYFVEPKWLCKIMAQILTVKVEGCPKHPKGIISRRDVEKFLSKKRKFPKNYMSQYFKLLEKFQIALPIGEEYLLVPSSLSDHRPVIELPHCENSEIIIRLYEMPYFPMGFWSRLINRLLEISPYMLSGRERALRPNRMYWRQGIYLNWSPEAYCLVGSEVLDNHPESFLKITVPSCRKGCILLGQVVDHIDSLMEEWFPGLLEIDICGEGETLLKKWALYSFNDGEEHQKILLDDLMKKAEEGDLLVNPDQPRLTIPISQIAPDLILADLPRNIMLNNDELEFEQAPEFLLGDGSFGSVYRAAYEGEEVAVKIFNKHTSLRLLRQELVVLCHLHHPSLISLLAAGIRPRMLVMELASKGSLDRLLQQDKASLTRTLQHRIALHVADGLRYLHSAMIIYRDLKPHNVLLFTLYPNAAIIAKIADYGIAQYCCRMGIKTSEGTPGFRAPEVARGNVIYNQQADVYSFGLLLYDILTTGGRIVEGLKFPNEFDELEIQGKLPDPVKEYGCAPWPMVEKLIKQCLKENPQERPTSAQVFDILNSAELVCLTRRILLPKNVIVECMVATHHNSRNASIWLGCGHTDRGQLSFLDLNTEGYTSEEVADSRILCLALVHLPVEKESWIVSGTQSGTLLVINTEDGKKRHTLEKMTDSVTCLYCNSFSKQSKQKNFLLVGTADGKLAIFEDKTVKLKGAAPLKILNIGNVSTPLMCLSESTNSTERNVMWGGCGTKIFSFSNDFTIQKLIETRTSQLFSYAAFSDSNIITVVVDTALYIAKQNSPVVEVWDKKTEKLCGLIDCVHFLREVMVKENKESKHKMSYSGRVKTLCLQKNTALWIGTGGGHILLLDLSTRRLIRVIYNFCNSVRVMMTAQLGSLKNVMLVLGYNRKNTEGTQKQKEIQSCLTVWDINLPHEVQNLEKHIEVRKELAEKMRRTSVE

T1 sequence (P56817 46-501): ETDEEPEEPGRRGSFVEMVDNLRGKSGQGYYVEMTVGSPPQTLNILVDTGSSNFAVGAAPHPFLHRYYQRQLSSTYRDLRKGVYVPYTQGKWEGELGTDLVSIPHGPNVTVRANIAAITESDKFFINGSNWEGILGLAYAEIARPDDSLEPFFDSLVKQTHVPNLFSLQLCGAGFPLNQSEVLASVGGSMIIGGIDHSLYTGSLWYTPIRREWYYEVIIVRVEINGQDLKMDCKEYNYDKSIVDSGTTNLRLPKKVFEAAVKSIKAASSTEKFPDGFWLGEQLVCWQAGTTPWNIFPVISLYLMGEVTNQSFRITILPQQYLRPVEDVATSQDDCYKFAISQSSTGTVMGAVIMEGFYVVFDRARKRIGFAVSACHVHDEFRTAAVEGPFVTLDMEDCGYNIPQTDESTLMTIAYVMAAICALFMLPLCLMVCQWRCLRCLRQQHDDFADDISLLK

O=C(Nc1nc2ccccc2s1)c1ccc(Cn2cc(COc3ccc(C(=O)Nc4nc5ccccc5s4)cc3)nn2)cc1 [compound 8]
Behavior in the inhibition of BACE1 (Lineweaver–Burk double reciprocal plot) (BACE1 [1]): substrate‐competitive
pIC50 (BACE1 [2]): 5.43
Aβ40 levels in cellular lysates (SK-APP cells): reducing
Aβ40 levels in extracellular fluid (SK-APP cells): reducing
Aβ42 levels in extracellular fluid (SK-APP cells): reducing
Solubility in the conditions of the PAMPA experiment (PAMPA-BBB test): insoluble
pIC50 (LRRK2): 5.74
